Columns and labels:
[1] = Cytotoxicity against mouse EL4.3 cells assessed as reduction in cell viability by MTT assay; assay type: cell-based
[2] = Inhibition of HIV reverse transcriptase transfected in HEK293T cells assessed as reduction in viral replication measured at 48 hrs postinfection by luciferase reporter based single-cycle non replicative phenotypic assay; assay type: cell-based; conditions: Human immunodeficiency virus 1, HEK-293T

IC50 ([2]; read-out: IC50) [µM]	Compound	CC50 [1] [µM]	IC50 [2] [µM]
> 100	CCc1nnn(Cc2cc(C)cc(C)c2)c1CCO	> 100	
27.8	Cc1cc(C)cc(Cn2cc(CO)nn2)c1	> 100	
> 83.5	OCc1cn(Cc2ccccc2)nn1	> 100	
> 100	CCc1c(CCO)nnn1Cc1ccccc1	> 100	
14.1	CCc1nn(CCO)nc1C(OC)c1cc(Cl)cc(Cl)c1 (stereo not drawn)	95.1	
> 24.5	OCc1cn(Cc2cc(C(F)(F)F)cc(C(F)(F)F)c2)nn1	> 53.4	
> 49	CCc1nn(CC)nc1C(OC)c1cc(Cl)cc(Cl)c1 (stereo not drawn)	89	
> 100	CCc1c(CCO)nnn1Cc1cccc(C#N)c1	> 100	
23.8	CCc1nn(CCO)nc1Cc1cc(Cl)cc(Cl)c1	84.7	
45.2	CCc1c(CCO)nnn1Cc1cc(Cl)cc(Cl)c1	> 100	
	Cc1ccnc2c1NC(=O)c1cccnc1N2C1CC1 [NEVIRAPINE]		0.091
> 100	CCc1nn(CCO)nc1Cc1cccc(C#N)c1	> 100	
> 100	CCc1nn(CCO)nc1Cc1cc(C)cc(C)c1	> 100	
> 83.5	N#Cc1cccc(Cn2cc(CCO)nn2)c1	> 100	
> 100	CCc1nnn(Cc2ccccc2)c1CCO	> 100	
> 100	CCc1nnn(Cc2cccc(C#N)c2)c1CCO	> 100	
72.6	CCc1nnn(Cc2cc(Cl)cc(Cl)c2)c1CCO	> 100	

— ChEMBL document CHEMBL3817766, “Application of the Huisgen cycloaddition and 'click' reaction toward various 1,2,3-triazoles as HIV non-nucleoside reverse transcriptase inhibitors” (Bioorg Med Chem Lett, 2016)
